The text below walks through data of the METLIN SMRT retention time set (Domingo-Almenara et al. 2019).

SMILES strings stand for the structures.

The nature of the series: gradient 5% acetonitrile 3 min, to 50% in 2 min, to 85% in 15 min, held 3 min, 100 µL/min. The note with it: column: Zorbax Extend-C18 2.1 x 50 mm; eluents: water / acetonitrile, 0.1% formic acid. In short, it runs like this:
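Retention time was recorded from adduct peaks, which were picked computationally and each inspected manually. Pure standards ran in mixtures of ~100 molecules on HPLC coupled to a quadrupole time-of-flight mass spectrometer, in positive and negative ionization mode, through a Zorbax Extend-C18 column (2.1 × 50 mm, 1.8 μm) at 100 μL/min. Eluents were water and acetonitrile, each with 0.1% formic acid.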
`c1ccc2c(c1)OCC(c1nc(-c3ccc(-n4ccnc4)nc3)no1)O2` (stereo not given) showed an RP-LC retention time of 707 s.

With `CCNC(=O)N1CCCC(c2cccc(C(=O)NCc3cccc(C(F)(F)F)c3)c2)C1` (stereo not given), the RP-LC retention time came out at 900 s.

Take `COC(=O)c1cccc(NC(=O)NCCCn2c(C(F)(F)F)nc3cccnc32)c1`: the RP-LC retention time came to 773 s.

The compound `Cc1cccc(-n2c(=O)c3c(cc(C)n3C)n(CC(=O)Nc3cc(C)ccc3C)c2=O)c1` displayed an RP-LC retention time of 844 s.

Compound `CCN1CCN(CC2CCN(S(=O)(=O)Cc3cccc(Cl)c3)CC2)CC1` came in with an RP-LC retention time of 618 s.

For the compound `CCCOc1ccc(CN2CCC3(CCC3O)CC2)cc1OC` (stereo not given), the RP-LC retention time was 629 s.

`O=C(CCS(=O)(=O)c1ccccc1)Nc1ccc(-c2ccn[nH]2)cc1` came in with an RP-LC retention time of 648 s.

On to `Cc1cccc(-c2nc(C3CC(=O)N(c4ccc(F)c(Cl)c4)C3)no2)c1` (stereo not given), for which the RP-LC retention time amounted to 1140 s.

Compound `O=S(=O)(NCCc1c[nH]c2ncccc12)c1ccccc1Br` yielded an RP-LC retention time of 630 s.

The compound `CCNC(=O)c1sc2nc(-c3cccc(F)c3)c(NCCCOC)n2c1C` displayed an RP-LC retention time of 844 s.

For `COc1ccc(-c2nc3cccnc3n2C2CCN(C(=O)c3cccs3)C2)cc1` (stereo not given), the RP-LC retention time was 732 s.

Take `Cn1nc2n(c1=O)CCN(C(=O)c1ccc3c(c1)OCO3)CC2`: the RP-LC retention time worked out at 610 s.

Regarding `CCNC(=O)c1cc(C)nc2ccc(C(C)C)cc12`, the RP-LC retention time was determined as 697 s.

Compound `Oc1ccc(-c2nc3ccc(Cl)cn3c2Nc2ccc(Cl)cc2)cc1` displayed an RP-LC retention time of 733 s.

Turning to `Cc1ccccc1CC(=O)N1CCC(c2nc(C(=O)N3CCOCC3)c(C)o2)CC1`, the RP-LC retention time came out at 616 s.

`O=C(Nc1ccc(F)cc1)N1CCC(N2CCN(Cc3ccccc3)C(=O)C2=O)CC1` had an RP-LC retention time of 723 s.

With `CC(C)Oc1ccc(CNC(=O)C2CCN(S(=O)(=O)c3cn(C(C)C)cn3)CC2)cc1`, the RP-LC retention time is 802 s.

With `O=C(CC(c1ccccc1)c1ccccc1)Nc1cc(N2CCOCC2)ncn1`, the RP-LC retention time is 752 s.

Compound `O=C(CSc1c(-c2ccccc2)[nH]c2ccccc12)NCC1CCCO1` (stereo not given) registered an RP-LC retention time of 753 s.

Take `COC(=O)c1cccc(NC(=O)C2CCN(c3cc(N4CCCC4)ncn3)CC2)c1`: the RP-LC retention time was determined as 658 s.

Regarding `COc1ccc(C)cc1NC(=O)N1CCN(c2ccc(=O)n(-c3ccc(C)cc3)n2)CC1`, the RP-LC retention time was determined as 915 s.

Take `CCN(Cc1ccc(OC)cc1)Cc1cc(=O)n2cc(C)ccc2n1`: the RP-LC retention time came out at 572 s.

`CCc1noc(-c2cnc3nc(C)ccc3c2NCc2ccccc2C)n1` came in with an RP-LC retention time of 784 s.

The compound `O=S(=O)(Nc1ccccc1F)c1c[nH]c2ncccc12` returned an RP-LC retention time of 697 s.

`O=C(c1ccnc(-c2cccs2)c1)N1CCN(c2ncccn2)CC1` gave an RP-LC retention time of 749 s.

`O=C(Cn1cccc(-c2nc(-c3ccc(Br)cc3)no2)c1=O)Nc1cccc(F)c1` displayed an RP-LC retention time of 992 s.

On to `CCOc1ccccc1NC(=O)N1CCC([C@@H]2[C@H](OC)C(=O)N2C(C)C)CC1`, for which the RP-LC retention time was found to be 846 s.

`CC(C)N1C(=O)C(C)(C(=O)N2CCN(c3ccccc3F)CC2)Oc2cccnc21` (stereo not given) returned an RP-LC retention time of 1130 s.

For `COc1ccc(OC)c(CNC(=O)c2nc(N3CCCC3)c3ccccc3n2)c1`, the RP-LC retention time amounted to 707 s.

`CC(=O)Nc1ccc(C2(C(=O)NCc3cccc(F)c3)CCC2)cc1`: the RP-LC retention time is 751 s.

For the compound `Cc1cc(NC(=O)Cn2cnc3c(cnn3C(C)(C)C)c2=O)no1`, the RP-LC retention time stood at 688 s.

As to `COC(=O)c1c(C)c(C(=O)C(C)N(CCC(C)C)C(=O)c2cccc(F)c2)c(C)n1C` (stereo not given), the RP-LC retention time was determined as 1100 s.

In turn, `COc1ccc(C2Cn3nnc(-c4nc(-c5ccc(Br)cc5)no4)c3CO2)cc1` (stereo not given) yielded an RP-LC retention time of 1260 s.

As for `CNC(=O)C1CCCN(c2nc3ncn(CC(=O)Nc4cc(F)ccc4F)c(=O)c3s2)C1` (stereo not given), the RP-LC retention time was found to be 641 s.

On to `Cc1noc(C)c1Cc1c(C(=O)NCCc2noc(C3CC3)n2)noc1C`, for which the RP-LC retention time was found to be 774 s.

For the compound `Cc1cc(C)n2nc(SCC(=O)NC3CCCC(C)C3C)nc2n1` (stereo not given), the RP-LC retention time was 776 s.

`Cc1c(Cc2ccccc2)sc(NC(=O)C2CCCCC2C(=O)O)c1C(N)=O` (stereo not given) gave an RP-LC retention time of 769 s.

In turn, `COc1ccc(C2CC(=O)N(c3cc(C)cc(C)c3)C(=O)C2)cc1OC` returned an RP-LC retention time of 891 s.

Turning to `Cc1oc(C2CCN(S(=O)(=O)c3ccc(F)cc3)CC2)nc1C(=O)N1CCOCC1`, the RP-LC retention time came out at 789 s.

`Cc1cc(NC(=O)c2sc(NCc3ccco3)nc2C)ccc1Cl` gave an RP-LC retention time of 956 s.

For the compound `O=C(NCc1ccccc1)c1cn(Cc2ccc(NC(=O)C3CCCCC3)cc2)cn1`, the RP-LC retention time stood at 749 s.

As to `Cn1cc2c3c(cccc31)CN(C(=O)c1ccccc1Br)CC2`, the RP-LC retention time stood at 968 s.

As to `COCc1c(C(=O)O)nnn1-c1ccc(C(F)(F)F)cc1`, the RP-LC retention time turned out to be 775 s.

As to `CCOC(=O)COC(=O)c1cn(-c2ccc(OC)cc2)c(=O)c2ccccc12`, the RP-LC retention time is 1010 s.

With `COc1ccc(Cn2cc(C(=O)O)nn2)cc1F`, the RP-LC retention time is 641 s.

With `CN1C(=O)c2cccnc2Sc2cc(NC(=O)c3c(F)cccc3F)ccc21`, the RP-LC retention time stood at 754 s.

On to `COc1cc(C)c(S(=O)(=O)Nc2ccc(-c3cn4ccc(C)nc4n3)cc2)cc1C`, for which the RP-LC retention time came out at 683 s.

`O=C(NC1CCN(c2nnc3ccc(Cl)cn23)CC1)c1ccc(N2CCCC2=O)cc1` had an RP-LC retention time of 651 s.

`Cc1ccc(OCc2nnc(SCC(=O)Nc3nc(-c4ccccc4)c(C)s3)o2)cc1`: the RP-LC retention time worked out at 1090 s.

Compound `CCc1cc(C(=O)N2CCN(CC)CC2)nc2cc(-c3ccsc3)nn12` showed an RP-LC retention time of 664 s.

Compound `CC(=O)N1CCc2cc(C(=O)N3CCOCC3)ccc21` came in with an RP-LC retention time of 607 s.

With `O=c1c2c(CO)c(-c3ccccc3)nn2ccn1Cc1ccccc1Cl`, the RP-LC retention time worked out at 961 s.

Turning to `CCOc1ccc(NC(=O)Cn2nc3cc(C)nc(-c4ccccc4)n3c2=O)cc1`, the RP-LC retention time was 705 s.

Compound `O=C(CCC1CCN(c2cc(NC3CC3)ncn2)CC1)NCc1cccnc1` returned an RP-LC retention time of 548 s.

Compound `Cc1ccc(C)c(CNC(=O)Cn2cnc3onc(C)c3c2=O)c1` returned an RP-LC retention time of 764 s.

For `Cc1ccc2c(Nc3ccc(C(C)C)cc3)c(C(=O)N3CCCC(C)C3)cnc2n1` (stereo not given), the RP-LC retention time was 737 s.

Compound `O=C(Nc1cc(F)cc(F)c1)C1CCCN(c2ccnc(-c3ccc(F)cc3)n2)C1` (stereo not given) had an RP-LC retention time of 761 s.

In turn, `Cc1cccc(CNC(=O)C2CCc3nc(N4CCOCC4)ncc3C2)c1` (stereo not given) displayed an RP-LC retention time of 723 s.

The compound `O=C(NCc1ccncc1)C1CCCN(c2nnc3c(Cl)cccn23)C1` (stereo not given) registered an RP-LC retention time of 561 s.

As to `O=C(c1ccccc1F)N1CCC2(CC1)N=C(c1ccc(Cl)cc1)NO2`, the RP-LC retention time came to 876 s.

For the compound `COc1ccc(Br)cc1CNC(=O)Cn1cnc2nc3c(cc2c1=O)CC(C)CC3` (stereo not given), the RP-LC retention time came to 845 s.

On to `CN(C)C(=O)CN1CCN(c2ccccc2)CC1`, for which the RP-LC retention time was 792 s.

Turning to `CCn1cc(CN2CCC(C(=O)NCc3ccc(C)cc3)CC2)c2cc(OC)ccc21`, the RP-LC retention time was 720 s.

Turning to `COc1ccccc1NS(=O)(=O)c1cc(-c2cc(C(F)(F)F)on2)sc1C`, the RP-LC retention time was determined as 1110 s.

`Cc1ccc(NC(=O)C2CCN(S(=O)(=O)c3cn(C)cn3)CC2)cc1` registered an RP-LC retention time of 701 s.

`CC(C)C(=O)N1CCc2c(c(C(=O)N3CCC(C(=O)NCc4ccc(F)cc4)CC3)nn2C)C1` had an RP-LC retention time of 675 s.

`O=C(c1cn2cc(Cl)ccc2n1)N1CCN(c2ccc(Cl)cc2)CC1`: the RP-LC retention time stood at 899 s.

In turn, `CCn1c(=O)c(NCc2ccc(C)c(C)c2)nc2ccncc21` displayed an RP-LC retention time of 672 s.

`CCCCCn1c(=O)c2ccccc2n(Cc2nc(-c3ccccc3OCC)no2)c1=O` returned an RP-LC retention time of 1250 s.

Compound `O=C(CSc1nnc2c3ccccc3nc(-c3ccco3)n12)NCc1nc2ccccc2[nH]1` registered an RP-LC retention time of 625 s.

With `CCNC(=O)N1CCCC(c2nn(C)c(=O)n2C2CCCC2)C1` (stereo not given), the RP-LC retention time turned out to be 630 s.

`Cc1ccn2cc(-c3ccc(NC(=O)c4ccccc4Br)cc3)nc2n1` displayed an RP-LC retention time of 647 s.

`Cc1nc(NC2=NCN(CCc3cccs3)CN2)nc2ccccc12`: the RP-LC retention time amounted to 731 s.

`COc1ccc(OC)c(NC(=O)Cn2c(=O)n(-c3ccc(C)cc3)c3ncccc32)c1` registered an RP-LC retention time of 896 s.

Compound `CCOC(=O)Cc1ccc(NC(=O)NC(C)C(=O)N2CCc3ccccc32)cc1` (stereo not given) registered an RP-LC retention time of 857 s.

As to `CN(Cc1ccccc1)C(=O)C1c2ccccc2C(=O)N(C)C1c1cccs1` (stereo not given), the RP-LC retention time amounted to 877 s.

`Cn1nc(C(=O)N2CCOCC2)c2c1CCN(C(=O)Nc1ccc(F)cc1F)C2` had an RP-LC retention time of 653 s.

In turn, `Cc1nnc(-c2ccc3ccn(CC(=O)Nc4ccccc4Cl)c3c2)o1` had an RP-LC retention time of 963 s.

Regarding `O=C(CN1C(=O)CCc2cc(Br)ccc21)NCc1cccnc1`, the RP-LC retention time was 614 s.

In turn, `COC(=O)c1c(NCCc2c[nH]c3ccccc23)c2cc(Cl)ccc2[nH]c1=O` displayed an RP-LC retention time of 809 s.
